Assay results reported in patent US20040072770A1, “Methods for specifically inhibiting histone deacetylase-7 and 8” (priority 2002, published 2004).
d = 2'-deoxy (DNA); m = 2'-O-methyl

What was measured:
HCT116 cells [1] = test: Inhibition of agar colony formation, HCT116; type: cell-based, human; conditions: 50 nM oligos for 48 hours, vs cells treated with lipofectin
human HDAC-8 mRNA = test: HDAC-8 mRNA expression in A549 cells, Northern blot; type: cell-based
Procedure: To identify antisense oligodeoxynucleotides (ODN) capable of inhibiting HDAC-8 expression in human cancer cells, fourteen phosphorothioate ODNs containing sequences complementary to the 5′ or 3′ UTR of the human […] (GenBank Accession No. AF230097) were initially screened in A549 cells at 100 nM. Cells were harvested after 24 hours of treatment, and HDAC-8 RNA expression was analyzed by Northern blot analysis. […] Total RNAs were harvested and were analyzed by Northern Blot. GAPDH expression was analyzed to indicate total RNA loading in each lane.
In order to determine the dose response of HDAC7 antisense inhibitors to reduce HDAC7 message at the mRNA level, Human A549 cells were treated with 25 or 50 nM of antisense (AS1 and AS2) oligos directed against human HDAC-7 or the corresponding mismatch of AS1 (MM1) oligo or an universal mismatch (UMM) for 24 hours. […] The time dependence of HDAC7 antisense inhibitors on blocking HDAC7 gene expression at the mRNA level was analyzed by treating A549 cells with 50 nM AS1 or MM1 oligos. […] Similarly, A549 cells were treated with 25 nM or 50 nM of AS1 or AS2 oligos directed against human HDAC-8 or its MM oligo for AS2 (MM2) for 24 hours. AS-2 oligo against human HDAC8 at 50 nM was also used to treat A549 cells for 24 or 48 hours.
(§1) For all ex vivo oligo treatment, human A549 human […] carcinoma cells were seeded in 10 cm tissue culture dishes one day prior to oligonucleotide treatment. The cell lines were obtained from the American Type Culture Collection (ATCC) (Manassas, Va.) and were grown under the recommended culture conditions. Before the addition of the oligonucleotides, cells were washed with PBS (phosphate buffered saline). Next, lipofectin transfection reagent (GIBCO BRL Mississauga, Ontario, Calif.), at a concentration of 6.25 μg/ ml, was added to serum free OPTIMEM medium (GIBCO BRL, Rockville, Md.), which was then added to the cells. The oligonucleotides were added directly to the cells (i.e., one oligonucleotide per plate of cells). Mismatched oligonucleotides were used as controls. The same concentration of oligonucleotide (e.g., 50 nM) was used per plate of cells for each oligonucleotide tested.
Cells were harvested, and total RNAs were analyzed by Northern blot analysis. Briefly, total RNA was extracted using RNeasy miniprep columns (QIAGEN Canada, Mississauga, Ontario). Ten to twenty […] of total RNA was run on a formaldehyde-containing 1% agarose gel with 0.5 M sodium phosphate (pH 7.0) as the buffer system. RNAs were then transferred to nitrocellulose membranes and hybridized with the indicated radiolabeled DNA probes. Autoradiography was performed using conventional procedures.

T24 cells = test: Apoptosis (Cell Death Detection ELISA), T24; type: cell-based, human; conditions: 50 nM, 48 hours, over mismatch control
Procedure: as §1
(§2) In order to determine the effect of HDAC ODNs on cell growth inhibition and cell death through apoptosis, A549, T24, DuI45, HCT116 cells (ATCC, Manassas, Va.), or HMEC cells (BioWhittaker, Walkersville, Md.) were treated with HDAC ODNs as previously described.
(§3) For the apoptosis study, cells were analyzed using the Cell Death Detection ELISA^Plus kit (Roche Diagnostic GmBH, Mannheim, Germany) according to the manufacturer's directions. Typically, 10,000 cells were plated in 96-well tissue culture dishes for 2 hours before harvest and lysis. Each sample was analyzed in duplicate. ELISA reading was done using a MR700 plate reader (DYNEX Technology, Ashford, Middlesex, England) at 410 nm. The reference was set at 490 nm.

A549 cells [2] = test: Apoptosis (Cell Death Detection ELISA), A549; type: cell-based, human; conditions: 50 nM, 48 hours, over mismatch control
Procedure: as §1, §2, §3
[…] Similarly, A549 cells were treated with 20 nM of HDAC1 AS in combination with 20 nM of each of AS inhibitors against human HDAC2 to HDAC8. After 48 hour treatment, A549 cells were harvested and analyzed for apoptosis by ELISA as described previously. Apoptosis of A549 cells by AS inhibition was compared to that of cells treated with 1 uM TSA for 16 hours. […] The control oligo UMM had no effect on induction of apoptosis.

A549 cells [3] = test: Growth inhibition by antisense oligos, A549; type: cell-based, human; conditions: 50 nM, 48 hour, vs cells treated with lipofectin
Procedure: as §1, §2
(§4) For the cell growth inhibition analysis, human cancer or normal cells were treated with 50 nM of paired AS or MM oligos directed against human HDAC-1, HDAC-7 or HDAC-8for up to 96 hours. Cell numbers were counted every day by trypan blue exclusion. Percentage of inhibition was calculated as (100 - AS cell numbers/control cell numbers)%.

Du145 cells = test: Growth inhibition by antisense oligos, Du145; type: cell-based, human; conditions: 50 nM, 48 hour, vs cells treated with lipofectin
Procedure: as §1, §2, §4

human HDAC-6 RNA = test: HDAC-6 RNA expression screen, Northern blot; type: cell-based; conditions: screened as above (T24 cells, 100 nM, 24 hours)
Procedure: (§5) To identify antisense oligodeoxynucleotide (ODN) capable of inhibiting HDAC-1 expression in human cancer cells, eleven phosphorothioate ODNs containing sequences complementary to the 5′ or 3′ UTR of the human HDAC-1 gene (GenBank Accession No. U50079) were initially screened in T24 cells at 100 nM. Cells were harvested after 24 hours of treatment, and HDAC-1 RNA expression was analyzed by Northern blot analysis. […] HDAC-1 MM oligo was created as a control; compared to the antisense oligo, it has a 6-base mismatch.
Thirteen phosphorothloate ODNs containing sequences complementary to the 5′ or 3′ untranslated regions of the human HDAC-6 gene (GenBank Accession No. AJ011972) were screened as above. […] HDAC-6 MM oligo was created as a control; compared to the antisense oligo, it contains a 7-base mismatch.

human HDAC-2 RNA = test: HDAC-2 RNA expression screen, Northern blot; type: cell-based; conditions: screened as above (T24 cells, 100 nM, 24 hours)
Procedure: as §5
Twenty-four phosphorothioate ODNs containing sequences complementary to the 5′ or 3′ UTR of the human HDAC-2 gene (GenBank Accession No. U31814) were screened as above. […] HDAC-2 MM was created as a control; compared to the antisense oligo, it contains a 7-base mismatch.

MDAmb231 cells [4] = test: Apoptosis (Cell Death Detection ELISA), MDAmb231; type: cell-based, human; conditions: 50 nM, 48 hours, over mismatch control
MDAmb231 cells [5] = test: Inhibition of agar colony formation, MDAmb231; type: cell-based, human; conditions: 50 nM oligos for 48 hours, vs cells treated with lipofectin
MDAmb231 cells [6] = test: Growth inhibition by antisense oligos, MDAmb231; type: cell-based, human; conditions: 50 nM, 48 hour, vs cells treated with lipofectin
Procedure: [The procedure below names another cell line; the source lists this cell line under the same test.] as §1, with “tested. […]” for “tested.”
as §4

HCT116 cells [7] = test: Growth inhibition by antisense oligos, HCT116; type: cell-based, human; conditions: 50 nM, 48 hour, vs cells treated with lipofectin
Procedure: as §1, with “tested. […]” for “tested.”
as §4

[8] = system: murine erythroleukemia cells; conditions: Yoshida et al, Cancer Res. 47:3688-3691 (1987); cited from earlier work
mammalian HDAC = conditions: Yoshida et al., J. Biol. Chem. 265:17174-17179 (1990); cited from earlier work

| Molecule | inhibition of agar colony formation HCT 116 (HCT116 cells [1]) | Apoptosis T24 (T24 cells) | Apoptosis A549 (A549 cells [2]) | Growth Inhibition A549 (A549 cells [3]) | Growth Inhibition Du145 (Du145 cells) | also measured |
| --- | --- | --- | --- | --- | --- | --- |
| 5′-AGCCAGCTGCCACTTGAUGC-3′ (sugars from the 5' end m4 d12 m4, all phosphorothioate, methylation of C not given here) [HD8 AS2, antisense oligo, Human HDAC8 3′-UTR] | + (“+” means >35% inhibition of agar colony formation of cells treated with 50 nM oligos for 48 hours compared to that of cells treated with lipofectin) | + (“+” means the induction of apoptosis at least 2 fold over mismatch control (50 nM, 48 hours)) | + (“+” means the induction of apoptosis at least 2 fold over mismatch control (50 nM, 48 hours)) | + (“+” means >35% inhibition of cell growth by antisense oligos (50 nM, 48 hour) compared to that of cells treated with lipofectin) | + (“+” means >35% inhibition of cell growth by antisense oligos (50 nM, 48 hour) compared to that of cells treated with lipofectin) | HDAC-8 mRNA expression, dose response (FIG. 5) (human HDAC-8 mRNA; 25 nM or 50 nM, 24 hours): inhibited in a dose-dependent manner; HDAC-8 mRNA expression, time course (FIG. 6) (human HDAC-8 mRNA; 50 nM, 24 or 48 hours): significantly block HDAC8 expression at the mRNA level by 24 hours; HDAC-8 RNA expression, initial screen (human HDAC-8 mRNA; 100 nM, 24 hours): good antisense activities |
| 5′-CAGGCTGGAATGAGCTACAG-3′ (sugars from the 5' end m4 d12 m4, all phosphorothioate, methylation of C not given here) [HD6 AS, antisense oligo, Human HDAC6 3′-UTR] |  |  |  |  |  | HDAC-6 RNA expression, screen (human HDAC-6 RNA): antisense activity to human HDAC-6 |
| 5′-GCUGAGCTGTTCTGATUUGG-3′ (sugars from the 5' end m4 d12 m4, all phosphorothioate, methylation of C not given here) [HD2 AS, antisense oligo, Human HDAC2 3′-UTR] |  |  |  |  | + (“+” means >35% inhibition of cell growth by antisense oligos (50 nM, 48 hour) compared to that of cells treated with lipofectin) | HDAC-2 RNA expression, screen (human HDAC-2 RNA): antisense activity to human HDAC-2 |
| 5′-GCUGCCTGCCGTGCCCACCC-3′ (sugars from the 5' end m4 d12 m4, all phosphorothioate, methylation of C not given here) [HD4 AS1, antisense oligo, Human HDAC4 5′-UTR] | + (“+” means >35% inhibition of agar colony formation of cells treated with 50 nM oligos for 48 hours compared to that of cells treated with lipofectin) | + (“+” means the induction of apoptosis at least 2 fold over mismatch control (50 nM, 48 hours)) | + (“+” means the induction of apoptosis at least 2 fold over mismatch control (50 nM, 48 hours)) | + (“+” means >35% inhibition of cell growth by antisense oligos (50 nM, 48 hour) compared to that of cells treated with lipofectin) | + (“+” means >35% inhibition of cell growth by antisense oligos (50 nM, 48 hour) compared to that of cells treated with lipofectin) | Apoptosis MDAmb 231 (MDAmb231 cells [4]): + (“+” means the induction of apoptosis at least 2 fold over mismatch control (50 nM, 48 hours)); inhibition of agar colony formation MDAmb 231 (MDAmb231 cells [5]): + (“+” means >35% inhibition of agar colony formation of cells treated with 50 nM oligos for 48 hours compared to that of cells treated with lipofectin); Growth Inhibition MDAmb 231 (MDAmb231 cells [6]): + (“+” means >35% inhibition of cell growth by antisense oligos (50 nM, 48 hour) compared to that of cells treated with lipofectin); Growth Inhibition HCT 116 (HCT116 cells [7]): + (“+” means >35% inhibition of cell growth by antisense oligos (50 nM, 48 hour) compared to that of cells treated with lipofectin) |
| CC(/C=C/C(=O)NO)=C\[C@@H](C)C(=O)c1ccc(N(C)C)cc1 [TSA, (R)-Trichostatin A] |  |  |  |  |  | induction of differentiation [8]: potent inducer of differentiation; inhibition of mammalian HDAC (mammalian HDAC): potent inhibitor |
